Assay results: US20080207733A1, “Composition for the Treatment of Vitiligo” (priority 2003, published 2008)
Where “and” joins values, the source holds several entries; their conditions need not be identical. Equal entries are not always repeated.

Columns and labels:
[1] = second part of Table 2
[2] = toxicological, teratologic and clinical trials
[3] = product to be used in the trial
[4] = system: patients suffering from vitiligo; test: Clinical trial in humans, repigmentation in vitiligo
[5] = topical, 3 times a week, 6 months, Melagenina Plus-resistant patients

L-Proline concentration, Fresh ([1]; hydroalcoholic solution just prepared): 1.01 mg/mL
L-Proline concentration, 12 months ([1]; hydroalcoholic solution, 12 months): 1.00 mg/mL
L-Proline concentration, 24 months ([1]; hydroalcoholic solution, 24 months): 1.00 mg/mL
Spectrum determination, Fresh (200-205 nm, hydroalcoholic solution just prepared): 0.051 UA
Spectrum determination, 12 months (200-205 nm, hydroalcoholic solution, 12 months): 0.072UA
Spectrum determination, 24 months (200-205 nm, hydroalcoholic solution, 24 months): 0.071 UA
remains stable after preparing the solution (hydroalcoholic solution, spectrophotometric determinations and aminoacids analysis): 2 years
SMILES: O=C(O)[C@@H]1CCCN1 [L-Proline]
adverse reactions [2]: No severe adverse reactions were reported
dermal and ophthalmic irritability [3]: innocuousness
reversibility of repigmentant effect once application is discontinued ([4]; human, in vivo): irreversible
Effect Evaluation ([4]; per patient No. 1-21, 1.5 mg/mL hydroalcoholic solution at 80%, topical, 3 times a week, 6 months): Noteworthy (10×) and Poor (2×)
increase of lesions or local or systemic side effect ([4]; topical, 3 times a week, 6 months): no increase of lesions or local or systemic side effect were reported in any of the cases
patients that did not show response to the treatment [4, 5]: 2 patients of 22
patients that showed noteworthy to moderate response [4, 5]: 18 patients
